According to BindingDB's records for doi:10.1021/acschembio.6b00827 (Universitätsklinikum Frankfurt, 2017):

How the values were obtained:
[1] = target: T1, Protein kinase C iota type (Homo sapiens, UniProt P41743); test: PKC AlphaScreen Assay; settings: pH 7.4
T1 sequence (P41743 whole entry): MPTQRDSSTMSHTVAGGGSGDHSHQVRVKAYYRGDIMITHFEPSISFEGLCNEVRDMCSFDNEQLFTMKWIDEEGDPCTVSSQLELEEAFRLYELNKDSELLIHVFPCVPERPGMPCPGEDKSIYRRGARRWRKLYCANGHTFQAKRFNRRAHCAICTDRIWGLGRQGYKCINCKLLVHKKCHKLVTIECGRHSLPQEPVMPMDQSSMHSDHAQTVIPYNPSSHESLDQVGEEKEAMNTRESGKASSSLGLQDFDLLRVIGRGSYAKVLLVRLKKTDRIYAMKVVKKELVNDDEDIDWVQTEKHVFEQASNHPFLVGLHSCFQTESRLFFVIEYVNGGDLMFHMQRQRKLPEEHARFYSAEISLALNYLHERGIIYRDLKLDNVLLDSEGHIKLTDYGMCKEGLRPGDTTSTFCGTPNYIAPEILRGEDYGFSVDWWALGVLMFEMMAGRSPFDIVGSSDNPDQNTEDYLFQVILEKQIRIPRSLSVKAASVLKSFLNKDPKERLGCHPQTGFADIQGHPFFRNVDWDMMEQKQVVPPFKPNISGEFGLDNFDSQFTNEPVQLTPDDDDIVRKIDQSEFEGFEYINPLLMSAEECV
Description: (§1) Interaction assays were performed using the Alpha-Screen (amplified luminescent proximity homogeneous assay) technology, as described previously [Lopez-Garcia et al., Chem. Biol., 18:1463-1473; Zhang et al., Chem. Biol., 21:754-765]. The bead-based assay allows the detection of biomolecular interactions and the effect of small compounds. Briefly, the Alpha-Screen assay was performed in a finalvolume of 25 μL in white 384-well microtiter plates (Greiner Bio-One) with His-PKCι-CD (40 nM) and biotin-pseudosubstrate (80 nM) or His-PKCι-CD (15 nM) and biotin-ROCKtide (100 nM) in a buffer containing 50 mM Tris-HCl (pH 7.4), 100 mM NaCl, 0.01% (v/v) Tween 20, 0.1% (w/v) BSA, 2 mM dithiothreitol (for the PKCι-Rocktide interaction) or 5 mM dithiothreitol (for the PKCι-pseudosubstrate interaction), and the corresponding concentration of the compound. Five microliters of beads at a concentration of 20 μg/mL was added to the mixture (nickel chelate-coated acceptor beads and streptavidin-coated donor beads), and after incubation for 90 min, Alpha-Screen counts were obtained in an EnVision Multiplate reader.

[2] = target: T2, Protein kinase C zeta type (Homo sapiens, UniProt Q05513); test: PKC AlphaScreen Assay; settings: pH 7.4
T2 sequence (Q05513 whole entry): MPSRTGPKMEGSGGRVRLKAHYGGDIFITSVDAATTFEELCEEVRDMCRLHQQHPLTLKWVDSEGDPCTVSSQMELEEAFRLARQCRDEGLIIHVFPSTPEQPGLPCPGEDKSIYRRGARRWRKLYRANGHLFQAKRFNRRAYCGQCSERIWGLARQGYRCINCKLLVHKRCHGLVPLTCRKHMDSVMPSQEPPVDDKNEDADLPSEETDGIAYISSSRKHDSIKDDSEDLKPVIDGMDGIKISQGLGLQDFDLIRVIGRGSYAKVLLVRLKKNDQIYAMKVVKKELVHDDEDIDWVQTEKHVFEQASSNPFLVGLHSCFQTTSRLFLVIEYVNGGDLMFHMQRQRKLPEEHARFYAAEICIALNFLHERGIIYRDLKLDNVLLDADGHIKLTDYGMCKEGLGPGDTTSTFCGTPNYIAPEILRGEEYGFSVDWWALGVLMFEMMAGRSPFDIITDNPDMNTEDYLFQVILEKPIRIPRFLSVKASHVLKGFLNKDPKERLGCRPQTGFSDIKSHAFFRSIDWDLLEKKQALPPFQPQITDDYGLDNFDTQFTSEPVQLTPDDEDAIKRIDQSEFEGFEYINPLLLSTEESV
Description: as §1

| Structure (SMILES) | IC50 [1] [µM] | IC50 [2] [µM] |
| --- | --- | --- |
| CCOC(=O)C1=C(O)C(=O)N(c2nc3ccc(Cl)cc3[nH]2)C1c1ccc(Cl)cc1 (configuration not stated) [PS212] | 43.2 | 20.5 |
| CCOC(=O)C1=C(O)C(=O)N(c2nc3ccc(Cl)cc3s2)C1c1cccs1 (configuration not stated) [PS267] | 36.4 | 17.8 |
| CCOC(=O)C1=C(O)C(=O)N(c2nc3ccc(Cl)cc3[nH]2)C1c1ccccc1 (configuration not stated) [PS312] |  | 44.1 |
| CCOC(=O)C1=C(O)C(=O)N(c2nc3ccc(C)cc3s2)C1c1ccc(-c2ccc(Cl)cc2)o1 (configuration not stated) [PS432] | 16.9 | 18.5 |
